Experimental data from patent publication US20250171438A1 (Agios Pharmaceuticals, Inc., priority 2022, published 2025).

target: T1, human PAH with the R408W mutation (Homo sapiens, UniProt P00439, R408W); assay: Cell Based Phenylalanine Flux Assay; conditions: A375 cells expressing human R408W PAH; 24 hrs compound incubation; 13C-Tyrosine by LC-MS; average where tested multiple times; read-out: AC50
T1 construct: expressed in transfected cells
T1 sequence (P00439 1-452 R408W): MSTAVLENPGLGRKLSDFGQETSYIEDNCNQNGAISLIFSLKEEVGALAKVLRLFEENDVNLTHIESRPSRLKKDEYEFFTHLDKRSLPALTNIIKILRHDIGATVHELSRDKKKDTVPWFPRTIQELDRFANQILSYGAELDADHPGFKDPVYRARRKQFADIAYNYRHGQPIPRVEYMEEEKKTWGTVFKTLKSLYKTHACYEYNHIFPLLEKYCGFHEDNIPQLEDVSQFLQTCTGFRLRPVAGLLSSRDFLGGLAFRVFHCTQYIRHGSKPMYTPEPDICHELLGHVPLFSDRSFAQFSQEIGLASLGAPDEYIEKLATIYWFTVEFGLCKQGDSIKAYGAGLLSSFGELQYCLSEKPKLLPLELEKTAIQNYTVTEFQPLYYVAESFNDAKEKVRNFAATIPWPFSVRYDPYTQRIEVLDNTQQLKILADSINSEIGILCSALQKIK

AC50 [nM]	SMILES
500 to 1000	CC(C)(C)c1ncc(C(=O)N2CCc3[nH]cnc3[C@@H]2c2nc3c(F)cccc3s2)s1 [Example 1426, (R)-(2-(tert-butyl)thiazol-5-yl)(4-(4-fluorobenzo[d]thiazol-2-yl)-6,7-dihydro-1H-imidazo[4,5-c]pyridin-5(4H)-yl)methanone]
< 500	CC(C)(C)c1ncc(C(=O)N2CCc3[nH]cnc3[C@H]2c2nc3ccccc3s2)o1 [Example 1427]
500 to 1000	CC(C)(C)c1ncc(C(=O)N2CCc3[nH]cnc3[C@@H]2c2nc3ccccc3s2)o1 [Example 1428, (R)-(4-(benzo[d]thiazol-2-yl)-6,7-dihydro-1H-imidazo[4,5-c]pyridin-5(4H)-yl)(2-(tert-butyl)oxazol-5-yl)methanone]
500 to 1000	CC(C)(C)c1ncc(C(=O)N2CCc3[nH]cnc3[C@@H]2c2nc3c(F)cccc3s2)o1 [Example 1429, (R)-(2-(tert-butyl)oxazol-5-yl)(4-(4-fluorobenzo[d]thiazol-2-yl)-6,7-dihydro-1H-imidazo[4,5-c]pyridin-5(4H)-yl)methanone]
< 500	CC(C)(C)c1ncc(C(=O)N2CCc3[nH]cnc3[C@H]2c2nc3c(F)cccc3s2)o1 [Example 1430]
< 500	Cc1nc(C(C)(C)C)oc1C(=O)N1CCc2[nH]cnc2[C@H]1c1nc2ccccc2s1 [Example 1431]
1000 to 5000	Cc1nc(C(C)(C)C)oc1C(=O)N1CCc2[nH]cnc2[C@@H]1c1nc2ccccc2s1 [Example 1432, (R)-(4-(benzo[d]thiazol-2-yl)-6,7-dihydro-1H-imidazo[4,5-c]pyridin-5(4H)-yl)(2-(tert-butyl)-4-methyloxazol-5-yl)methanone]
500 to 1000	Cc1nc(C(C)(C)C)oc1C(=O)N1CCc2[nH]cnc2[C@H]1c1nc2c(F)cccc2s1 [Example 1433]
1000 to 5000	Cc1nc(C(C)(C)C)oc1C(=O)N1CCc2[nH]cnc2[C@@H]1c1nc2c(F)cccc2s1 [Example 1434, (R)-(2-(tert-butyl)-4-methyloxazol-5-yl)(4-(4-fluorobenzo[d]thiazol-2-yl)-6,7-dihydro-1H-imidazo[4,5-c]pyridin-5(4H)-yl)methanone]
< 500	CC(C)(O)c1ncc(C(=O)N2CCc3[nH]cnc3[C@H]2c2nc3ccccc3s2)s1 [Example 1435]
1000 to 5000	CC(C)(O)c1ncc(C(=O)N2CCc3[nH]cnc3[C@@H]2c2nc3ccccc3s2)s1 [Example 1436, (R)-(4-(benzo[d]thiazol-2-yl)-6,7-dihydro-1H-imidazo[4,5-c]pyridin-5(4H)-yl)(2-(2-hydroxypropan-2-yl)thiazol-5-yl)methanone]
1000 to 5000	c1cnc(N2CCc3[nH]cnc3[C@@H]2c2nc3ccccc3s2)nc1 [Example 1437, (R)-2-(5-(pyrimidin-2-yl)-4,5,6,7-tetrahydro-1H-imidazo[4,5-c]pyridin-4-yl)benzo[d]thiazole]
< 500	c1cnc(N2CCc3[nH]cnc3[C@H]2c2nc3ccccc3s2)nc1 [Example 1438]
< 500	O=C(c1nnc(-c2ccccn2)o1)N1CCc2[nH]cnc2[C@H]1c1nc2ccccc2s1 [Example 1439]
1000 to 5000	O=C(c1nnc(-c2ccccn2)o1)N1CCc2[nH]cnc2[C@@H]1c1nc2ccccc2s1 [Example 1440, (R)-(4-(benzo[d]thiazol-2-yl)-6,7-dihydro-1H-imidazo[4,5-c]pyridin-5(4H)-yl)(5-(pyridin-2-yl)-1,3,4-oxadiazol-2-yl)methanone]
> 5000	O=C(c1ocnc1-c1ccccc1)N1CCc2[nH]cnc2[C@@H]1c1nc2ccccc2s1 [Example 1441, (R)-(4-(benzo[d]thiazol-2-yl)-6,7-dihydro-1H-imidazo[4,5-c]pyridin-5(4H)-yl)(4-phenyloxazol-5-yl)methanone]

AC50 [nM]	SMILES
500 to 1000	O=C(c1ocnc1-c1ccccc1)N1CCc2[nH]cnc2[C@H]1c1nc2ccccc2s1 [Example 1442]
< 500	O=C(c1nnc(C2CC2)o1)N1CCc2[nH]cnc2[C@H]1c1nc2c(F)cccc2s1 [Example 1443]
1000 to 5000	O=C(c1nnc(C2CC2)o1)N1CCc2[nH]cnc2[C@@H]1c1nc2c(F)cccc2s1 [Example 1444, (R)-(5-cyclopropyl-1,3,4-oxadiazol-2-yl)(4-(4-fluorobenzo[d]thiazol-2-yl)-6,7-dihydro-1H-imidazo[4,5-c]pyridin-5(4H)-yl)methanone]
< 500	Cc1nc(-c2ccccn2)oc1C(=O)N1CCc2[nH]cnc2[C@H]1c1nc2c(F)cccc2s1 [Example 1445, (S)-(4-(4-fluorobenzo[d]thiazol-2-yl)-6,7-dihydro-1H-imidazo[4,5-c]pyridin-5(4H)-yl)(4-methyl-2-(pyridin-2-yl)oxazol-5-yl)methanone]
> 5000	Cc1nc(-c2ccccn2)oc1C(=O)N1CCc2[nH]cnc2[C@@H]1c1nc2c(F)cccc2s1 [Example 1446, (R)-(4-(4-fluorobenzo[d]thiazol-2-yl)-6,7-dihydro-1H-imidazo[4,5-c]pyridin-5(4H)-yl)(4-methyl-2-(pyridin-2-yl)oxazol-5-yl)methanone]
1000 to 5000	CC(C)(O)c1ncc(C(=O)N2CCc3[nH]cnc3[C@@H]2c2nc3ccccc3s2)o1 [Example 1447, (R)-(4-(benzo[d]thiazol-2-yl)-6,7-dihydro-1H-imidazo[4,5-c]pyridin-5(4H)-yl)(2-(2-hydroxypropan-2-yl)oxazol-5-yl)methanone]
500 to 1000	CC(C)(O)c1ncc(C(=O)N2CCc3[nH]cnc3[C@H]2c2nc3ccccc3s2)o1 [Example 1448]
> 5000	O=C(c1ocnc1-c1ccccn1)N1CCc2[nH]cnc2[C@@H]1c1nc2ccccc2s1 [Example 1449, (R)-(4-(benzo[d]thiazol-2-yl)-6,7-dihydro-1H-imidazo[4,5-c]pyridin-5(4H)-yl)(4-(pyridin-2-yl)oxazol-5-yl)methanone]
500 to 1000	O=C(c1ocnc1-c1ccccn1)N1CCc2[nH]cnc2[C@H]1c1nc2ccccc2s1 [Example 1450]
< 500	COCCc1ccc2c(C(=O)N3CCc4[nH]cnc4[C@H]3c3nc4ccccc4s3)cnn2c1 [Example 1451]
> 5000	COCCc1ccc2c(C(=O)N3CCc4[nH]cnc4[C@@H]3c3nc4ccccc4s3)cnn2c1 [Example 1452, (R)-(4-(benzo[d]thiazol-2-yl)-6,7-dihydro-1H-imidazo[4,5-c]pyridin-5(4H)-yl)(6-(2-methoxyethyl)pyrazolo[1,5-a]pyridin-3-yl)methanone]
< 500	CN(C)CCc1ccc2c(C(=O)N3CCc4[nH]cnc4[C@H]3c3nc4ccccc4s3)cnn2c1 [Example 1453]
> 5000	CN(C)CCc1ccc2c(C(=O)N3CCc4[nH]cnc4[C@@H]3c3nc4ccccc4s3)cnn2c1 [Example 1454, (R)-(4-(benzo[d]thiazol-2-yl)-6,7-dihydro-1H-imidazo[4,5-c]pyridin-5(4H)-yl)(6-(2-(dimethylamino)ethyl)pyrazolo[1,5-a]pyridin-3-yl)methanone]
< 500	CC(C)(F)c1ncc(C(=O)N2CCc3[nH]cnc3[C@H]2c2nc3ccccc3s2)o1 [Example 1455]
1000 to 5000	CC(C)(F)c1ncc(C(=O)N2CCc3[nH]cnc3[C@@H]2c2nc3ccccc3s2)o1 [Example 1456, (R)-(4-(benzo[d]thiazol-2-yl)-6,7-dihydro-1H-imidazo[4,5-c]pyridin-5(4H)-yl)(2-(2-fluoropropan-2-yl)oxazol-5-yl)methanone]
1000 to 5000	Cc1cnc(CC(=O)N2CCc3[nH]cnc3[C@H]2c2nc3ccccc3s2)s1 [Example 1457]
